Measurements from patent publication US4616081A, “Cephalosporin compounds” (Asahi Kasei Kogyo Kabushiki Kaisha, priority 1982, dated 1986).

How the values were obtained:
Shigella sonnei E33 = assay: MIC against Shigella sonnei E33; type: cell-based
Protocol: (§1) Nextly, antibacterial activity or minimum inhibitory concentration (MIC) was measured and the results are shown in Table 1 with respect to the following representative compounds according to the present invention. [drawing 19]
(§2) With respect to Compound Nos. 14 and 15, antibacterial activity or minimum inhibitory concentration (MIC) was measured and the results are shown in Table 2. [drawing 21]

[1] = tested on: Enterobact. cloacae GN336; assay: MIC against Enterobact. cloacae GN336; type: cell-based
Protocol: as §1, §2

[2] = tested on: Salm. enteritidis Gaertner; assay: MIC against Salm. enteritidis Gaertner; type: cell-based
Protocol: as §1, §2

Staph. aureus ATCC 6538P = assay: MIC against Staph. aureus ATCC 6538P; type: cell-based
Protocol: as §1, §2

E. coli NIHJ-JC2 = assay: MIC against E. coli NIHJ-JC2; type: cell-based
Protocol: as §1, §2

E. coli W3630 RGN14 = assay: MIC against E. coli W3630 RGN14; type: cell-based
Sarcina lutea ATCC 9341 = assay: MIC against Sarcina lutea ATCC 9341; type: cell-based
Protocol: as §1, §2

[3] = tested on: Klebs. pneumoniae ATCC 10031; assay: MIC against Klebs. pneumoniae ATCC 10031; type: cell-based
Protocol: as §1, §2

E. coli W3630 = assay: MIC against E. coli W3630; type: cell-based
Protocol: as §1, §2

E. coli 0205 = assay: MIC against E. coli 0205; type: cell-based
E. coli W3630 RGN238 = assay: MIC against E. coli W3630 RGN238; type: cell-based
Serratia marcescens = assay: MIC against Serratia marcescens; type: cell-based
Protocol: as §1, §2

[4] = maximum blood concentration after oral administration in Wister rats (HPLC and Bioassay); type: in vivo; conditions: Wister rat, fasted, 30 mg/kg, solution of pH 7 in phosphate buffer
Protocol: Further in the compounds according to the present invention, intestinal absorption is improved by the introduction of amino acids at the 3-position thereof. For example, comparison of the maximum blood concentration of the Compound Nos. 2, 3, 7, 8, 14, 15 and 23 with that of Comparative Compound (b) establishes and affirms the effects, as is shown below. In the above test, the method for measurement of blood concentration was as follows. Rate: Wister rat weighing 170 to 220 g Dose: 30 mg/kg Wister rats were fasted from the previous night but freely accessible to water. Each of drugs was administered as a solution of pH 7 in a phosphate buffer, when orally administered. The blood concentration was measured in accordance with the High Performance Liquid Chromatography (HPLC) method and the Bioassay method by using E. coli as bacteria for test.

Proteus rettgeri ACR = assay: MIC against Proteus rettgeri ACR; type: cell-based
Protocol: as §1, §2

[5] = tested on: Enterobact. aerogenes 0655; assay: MIC against Enterobact. aerogenes 0655; type: cell-based
Protocol: as §1, §2

Proteus morganii 0239 = assay: MIC against Proteus morganii 0239; type: cell-based
Protocol: as §1, §2

E. coli W3630 PS3 = assay: MIC against E. coli W3630 PS3; type: cell-based
Protocol: as §1, §2

Staph. pyogenes NY5 = assay: MIC against Staph. pyogenes NY5; type: cell-based
[6] = tested on: Citrobact. freundii GN346; assay: MIC against Citrobact. freundii GN346; type: cell-based
Protocol: as §1, §2

Staph. aureus MS27 = assay: MIC against Staph. aureus MS27; type: cell-based
Protocol: as §1, §2

[7] = Bacterial count inoculated 10^6 cells/ml
[8] = Bacterial count inoculated 10^8 cells/ml
[9] = Table 3, second listing of the strain, head prints 10^6 cells/ml

CO/N=C(\C(=O)N[C@@H]1C(=O)N2C(C(=O)O)=C(COC(C)=O)CS[C@H]12)c1csc(N)n1 [Comparative Compound (b), reference compound]
Minimum Inhibitory Concentration (MIC) (Shigella sonnei E33; [7]): ≤ 0.2
Minimum Inhibitory Concentration (MIC) (Shigella sonnei E33; [8]): 1.6
Minimum Inhibitory Concentration (MIC) (Shigella sonnei E33; [9]): 3.1
Minimum Inhibitory Concentration (MIC) [1, 7]: ≤ 0.2
Minimum Inhibitory Concentration (MIC) [1, 8]: 50
Minimum Inhibitory Concentration (MIC) [1, 9]: 50
Minimum Inhibitory Concentration (MIC) [2, 7]: ≤ 0.2
Minimum Inhibitory Concentration (MIC) [2, 8]: 6.3
Minimum Inhibitory Concentration (MIC) (Staph. aureus ATCC 6538P; [7]): 1.6
Minimum Inhibitory Concentration (MIC) (Staph. aureus ATCC 6538P; [8]): 3.1
Minimum Inhibitory Concentration (MIC) (E. coli NIHJ-JC2; [8]): 6.3
Minimum Inhibitory Concentration (MIC) (E. coli NIHJ-JC2; [9]): 25
Minimum Inhibitory Concentration (MIC) (E. coli W3630 RGN14; [7]): ≤ 0.2
Minimum Inhibitory Concentration (MIC) (E. coli W3630 RGN14; [9]): 100
Minimum Inhibitory Concentration (MIC) (Sarcina lutea ATCC 9341; [7]): ≤ 0.2
Minimum Inhibitory Concentration (MIC) (Sarcina lutea ATCC 9341; [8]): ≤ 0.2
Minimum Inhibitory Concentration (MIC) [3, 7]: ≤ 0.2
Minimum Inhibitory Concentration (MIC) [3, 8]: 25
Minimum Inhibitory Concentration (MIC) [3, 9]: 1.6
Minimum Inhibitory Concentration (MIC) (E. coli W3630; [7]): ≤ 0.2
Minimum Inhibitory Concentration (MIC) (E. coli W3630; [8]): 25
Minimum Inhibitory Concentration (MIC) (E. coli W3630; [9]): 6.3
Minimum Inhibitory Concentration (MIC) (E. coli 0205; [7]): 0.4
Minimum Inhibitory Concentration (MIC) (E. coli 0205; [9]): 50
Minimum Inhibitory Concentration (MIC) (E. coli W3630 RGN238; [7]): ≤ 0.2
Minimum Inhibitory Concentration (MIC) (E. coli W3630 RGN238; [9]): ≥ 100
Minimum Inhibitory Concentration (MIC) (Serratia marcescens; [7]): ≤ 0.2
Minimum Inhibitory Concentration (MIC) (Serratia marcescens; [8]): 50
Minimum Inhibitory Concentration (MIC) (Serratia marcescens; [9]): > 100
Cmax [4]: 200 ng/mL
Minimum Inhibitory Concentration (MIC) (Proteus rettgeri ACR; [7]): ≤ 0.2
Minimum Inhibitory Concentration (MIC) (Proteus rettgeri ACR; [9]): 100
Minimum Inhibitory Concentration (MIC) [5, 7]: ≤ 0.2
Minimum Inhibitory Concentration (MIC) [5, 8]: 50
Minimum Inhibitory Concentration (MIC) (Proteus morganii 0239; [7]): ≤ 0.2
Minimum Inhibitory Concentration (MIC) (Proteus morganii 0239; [8]): 50
Minimum Inhibitory Concentration (MIC) (E. coli W3630 PS3; [7]): ≤ 0.2
Minimum Inhibitory Concentration (MIC) (E. coli W3630 PS3; [8]): 25
Minimum Inhibitory Concentration (MIC) (Staph. pyogenes NY5; [7]): ≤ 0.2
Minimum Inhibitory Concentration (MIC) (Staph. pyogenes NY5; [8]): 0.2
Minimum Inhibitory Concentration (MIC) [6, 7]: 25
Minimum Inhibitory Concentration (MIC) [6, 8]: 100
Minimum Inhibitory Concentration (MIC) (Staph. aureus MS27; [7]): 1.6
Minimum Inhibitory Concentration (MIC) (Staph. aureus MS27; [8]): 3.1

CCN1CCN(C(=O)NC(C(=O)NC2C(=O)N3C(C(=O)O)=C(CSc4nnnn4C)CSC23)c2ccc(O)cc2)C(=O)C1=O (stereo not drawn) [Comparative Compound (c), reference compound]
Minimum Inhibitory Concentration (MIC) (Shigella sonnei E33; [7]): ≤ 0.2
Minimum Inhibitory Concentration (MIC) (Shigella sonnei E33; [8]): ≤ 0.2
Minimum Inhibitory Concentration (MIC) [1, 7]: ≤ 0.2
Minimum Inhibitory Concentration (MIC) [1, 8]: 50
Minimum Inhibitory Concentration (MIC) [2, 7]: 0.4
Minimum Inhibitory Concentration (MIC) [2, 8]: 50
Minimum Inhibitory Concentration (MIC) (Staph. aureus ATCC 6538P; [7]): 1.6
Minimum Inhibitory Concentration (MIC) (Staph. aureus ATCC 6538P; [8]): 1.6
Minimum Inhibitory Concentration (MIC) (E. coli NIHJ-JC2; [7]): ≤ 0.2
Minimum Inhibitory Concentration (MIC) (E. coli NIHJ-JC2; [8]): 6.3
Minimum Inhibitory Concentration (MIC) (Sarcina lutea ATCC 9341; [7]): ≤ 0.2
Minimum Inhibitory Concentration (MIC) (Sarcina lutea ATCC 9341; [8]): ≤ 0.2
Minimum Inhibitory Concentration (MIC) [3, 7]: ≤ 0.2
Minimum Inhibitory Concentration (MIC) [3, 8]: > 100
Minimum Inhibitory Concentration (MIC) (E. coli W3630; [7]): 0.4
Minimum Inhibitory Concentration (MIC) (E. coli W3630; [8]): 25
Minimum Inhibitory Concentration (MIC) (Serratia marcescens; [7]): 0.8
Minimum Inhibitory Concentration (MIC) (Serratia marcescens; [8]): > 100
Minimum Inhibitory Concentration (MIC) [5, 7]: 0.8
Minimum Inhibitory Concentration (MIC) [5, 8]: > 100
Minimum Inhibitory Concentration (MIC) (Proteus morganii 0239; [7]): 0.8
Minimum Inhibitory Concentration (MIC) (Proteus morganii 0239; [8]): > 100
Minimum Inhibitory Concentration (MIC) (E. coli W3630 PS3; [7]): ≤ 0.2
Minimum Inhibitory Concentration (MIC) (E. coli W3630 PS3; [8]): 25
Minimum Inhibitory Concentration (MIC) (Staph. pyogenes NY5; [7]): ≤ 0.2
Minimum Inhibitory Concentration (MIC) (Staph. pyogenes NY5; [8]): 0.4
Minimum Inhibitory Concentration (MIC) [6, 7]: 50
Minimum Inhibitory Concentration (MIC) [6, 8]: > 100
Minimum Inhibitory Concentration (MIC) (Staph. aureus MS27; [7]): 3.1
Minimum Inhibitory Concentration (MIC) (Staph. aureus MS27; [8]): 50

CC(C)(O/N=C(\C(=O)N[C@@H]1C(=O)N2C(C(=O)O)=C(CSc3nnc(CC(N)C(=O)O)s3)CS[C@H]12)c1csc(N)n1)C(=O)O (stereo partly drawn) [Compound No. 8]
Cmax [4]: 8000 ng/mL
